Laboratory results taken from PubChem BioAssay AID248 (DTP/NCI, 2004).
Where “and” joins values, the source holds several entries; their conditions need not be identical. Identical values can stand only once. Inconclusive results and toxic doses are left out. No stated cut-off is given here; in the data, active means T/C of 150% or more; inactive means T/C below 125%.

System: L1210 leukemia ip in BDF1 mice, survival T/C
Assay: NCI In Vivo Anticancer Drug Screen. Data for tumor model L1210 Leukemia (intraperitoneal) in B6D2F1 (BDF1) mice
Settings: endpoint: mean survival time, higher = longer survival
Procedure, shortened: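 Antitumor effect is assessed in tumor-bearing animals. Survival in the compound arm is compared with a vehicle-dosed control arm and expressed as their quotient.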

[1] = dose: 100.0 mg/kg/injection, schedule: Q04DX003 (ip), vehicle: saline
[2] = dose: 200.0 mg/kg/injection, schedule: Q04DX003 (ip), vehicle: saline
[3] = dose: 400.0 mg/kg/injection, schedule: Q04DX003 (ip), vehicle: saline
[4] = dose: 50.0 mg/kg/injection, schedule: Q01DX009 (ip), vehicle: saline with Tween-80
[5] = dose: 200.0 mg/kg/injection, schedule: Q01DX009 (ip), vehicle: saline with Tween-80
[6] = dose: 100.0 mg/kg/injection, schedule: Q04DX002 (ip), vehicle: Klucel (hydroxypropylcellulose) (HPC)
[7] = dose: 200.0 mg/kg/injection, schedule: Q04DX002 (ip), vehicle: Klucel (hydroxypropylcellulose) (HPC)
[8] = dose: 400.0 mg/kg/injection, schedule: Q04DX002 (ip), vehicle: Klucel (hydroxypropylcellulose) (HPC)
[9] = dose: 50.0 mg/kg/injection, schedule: Q01DX009 (ip), vehicle: Klucel (hydroxypropylcellulose) (HPC)
[10] = dose: 100.0 mg/kg/injection, schedule: Q01DX009 (ip), vehicle: Klucel (hydroxypropylcellulose) (HPC)
[11] = dose: 200.0 mg/kg/injection, schedule: Q01DX009 (ip), vehicle: Klucel (hydroxypropylcellulose) (HPC)
[12] = dose: 100.0 mg/kg/injection, schedule: Q01DX001 (ip), vehicle: carboxymethylcellulose (CMC)
[13] = dose: 200.0 mg/kg/injection, schedule: Q01DX001 (ip), vehicle: carboxymethylcellulose (CMC)
[14] = dose: 100.0 mg/kg/injection, schedule: Q01DX009 (ip), vehicle: saline with Tween-80
[15] = dose: 100.0 mg/kg/injection, schedule: Q04DX002 (ip), vehicle: saline with Tween-80
[16] = dose: 12.5 mg/kg/injection, schedule: Q01DX009 (ip), vehicle: Klucel (hydroxypropylcellulose) (HPC)
[17] = dose: 25.0 mg/kg/injection, schedule: Q01DX009 (ip), vehicle: Klucel (hydroxypropylcellulose) (HPC)
[18] = dose: 100.0 mg/kg/injection, schedule: Q04DX003 (ip), vehicle: saline with Tween-80
[19] = dose: 200.0 mg/kg/injection, schedule: Q04DX003 (ip), vehicle: saline with Tween-80
[20] = dose: 400.0 mg/kg/injection, schedule: Q04DX003 (ip), vehicle: saline with Tween-80

Measured: T/C

CCOP(=O)(OCC)OC(=C(F)F)P(=O)(OCC)OCC
inactive: [1] 98 % of control | [2] 101 % of control | [3] 96 % of control

CCCC/C=C/CO
inactive: dose: 25.0 mg/kg/injection, schedule: Q01DX009 (ip), vehicle: saline with Tween-80 97 % of control | [4] 97 % of control and 100 % of control | [5] 97 % of control and 100 % of control

O=S1(=O)C2CCCCCC2(N2CCOCC2)C1c1ccccc1 (configuration not stated)
inactive: [6] 101 % of control | [7] 97 % of control | [8] 93 % of control

O=C(C(c1ccccn1)=P(c1ccccc1)(c1ccccc1)c1ccccc1)c1ccc([N+](=O)[O-])cc1
inactive: [9] 88 % of control | [10] 91 % of control | [11] 98 % of control

CC(=O)Nc1ccc(Cc2ccccc2)cc1[N+](=O)[O-]
inactive: [12] 106 % of control | [13] 98 % of control | dose: 400.0 mg/kg/injection, schedule: Q01DX001 (ip), vehicle: carboxymethylcellulose (CMC) 97 % of control

CC(C)=CCC/C(C)=C\CN=C1C=CC(=O)O1
inactive: dose: 25.0 mg/kg/injection, schedule: Q01DX009 (ip), vehicle: saline + alcohol 97 % of control | dose: 25.0 mg/kg/injection, schedule: Q04DX003 (ip), vehicle: other 107 % of control | dose: 50.0 mg/kg/injection, schedule: Q01DX009 (ip), vehicle: saline + alcohol 90 % of control | dose: 50.0 mg/kg/injection, schedule: Q04DX003 (ip), vehicle: other 107 % of control | dose: 100.0 mg/kg/injection, schedule: Q04DX003 (ip), vehicle: other 121 % of control | [1] 91 % of control

Cc1ccc(S(=O)(=O)OCC(COS(=O)(=O)c2ccc(C)cc2)(COS(=O)(=O)c2ccc(C)cc2)COS(=O)(=O)c2ccc(C)cc2)cc1
inactive: dose: 50.0 mg/kg/injection, schedule: Q04DX002 (ip), vehicle: Klucel (hydroxypropylcellulose) (HPC) 97 % of control | [6] 93 % of control and 105 % of control | [7] 102 % of control | [8] 110 % of control

Cc1ccc(C)c(NC(=O)Oc2ccc(Cl)cc2C)c1
inactive: dose: 100.0 mg/kg/injection, schedule: Q01DX001 (ip), vehicle: saline with Tween-80 100 % of control and 91 % of control | [14] 86 % of control | [15] 92 % of control | dose: 200.0 mg/kg/injection, schedule: Q01DX001 (ip), vehicle: saline with Tween-80 98 % of control | [5] 100 % of control and 89 % of control | dose: 200.0 mg/kg/injection, schedule: Q04DX002 (ip), vehicle: saline with Tween-80 92 % of control | dose: 400.0 mg/kg/injection, schedule: Q01DX001 (ip), vehicle: saline with Tween-80 94 % of control and 100 % of control | dose: 400.0 mg/kg/injection, schedule: Q01DX009 (ip), vehicle: saline with Tween-80 99 % of control and 100 % of control | dose: 400.0 mg/kg/injection, schedule: Q04DX002 (ip), vehicle: saline with Tween-80 89 % of control

CCCCCCCCCCCC(=O)Nc1ccccc1
inactive: [16] 92 % of control | [17] 90 % of control | [9] 110 % of control

C=CC(=O)NCNC(C)C (tested in a mixture with another compound)
inactive: [16] 97 % of control | dose: 12.5 mg/kg/injection, schedule: Q01DX009 (ip), vehicle: saline 100 % of control and 93 % of control | [17] 97 % of control | dose: 25.0 mg/kg/injection, schedule: Q01DX009 (ip), vehicle: saline 95 % of control | [9] 90 % of control | dose: 50.0 mg/kg/injection, schedule: Q01DX009 (ip), vehicle: saline 100 % of control

COC1C(OC(C)=O)C(OC(C)=O)C(OC(C)=O)C(OC(C)=O)C1OC(C)=O (configuration not stated)
inactive: [4] 94 % of control | [14] 98 % of control | [5] 88 % of control

N\C([S-])=N/N=C\C(=N/N=C(\N)[S-])C(O)C(O)C(O)CO.[Ni+2] (configuration not stated)
inactive: [18] 96 % of control | [19] 94 % of control | [20] 91 % of control

COC(=N)c1ccc2c(c1)OCO2
inactive: [1] 94 % of control | [2] 94 % of control | [3] 100 % of control

[Cl][Ni][Cl].[NH-]CCN1CC1.[NH-]CCN1CC1
inactive: dose: 1.75 mg/kg/injection, schedule: Q01DX009 (ip), vehicle: saline 101 % of control | dose: 3.5 mg/kg/injection, schedule: Q01DX009 (ip), vehicle: saline 97 % of control | dose: 7.0 mg/kg/injection, schedule: Q01DX009 (ip), vehicle: saline 103 % of control | dose: 14.0 mg/kg/injection, schedule: Q01DX009 (ip), vehicle: saline 98 % of control

Cc1nc2nccnc2[nH]1
inactive: dose: 100.0 mg/kg/injection, schedule: Q01DX009 (ip), vehicle: saline sonified 100 % of control | [18] 96 % of control | dose: 200.0 mg/kg/injection, schedule: Q01DX009 (ip), vehicle: saline sonified 92 % of control | [19] 96 % of control | dose: 400.0 mg/kg/injection, schedule: Q01DX009 (ip), vehicle: saline sonified 96 % of control | [20] 96 % of control

[Cl][Zn][Cl].[NH-]CCN1CC1.[NH-]CCN1CC1
inactive: dose: 10.0 mg/kg/injection, schedule: Q01DX009 (ip), vehicle: saline 108 % of control | dose: 20.0 mg/kg/injection, schedule: Q01DX009 (ip), vehicle: saline 111 % of control | dose: 20.0 mg/kg/injection, schedule: Q04DX003 (ip), vehicle: saline 104 % of control | dose: 40.0 mg/kg/injection, schedule: Q01DX009 (ip), vehicle: saline 93 % of control | dose: 40.0 mg/kg/injection, schedule: Q04DX003 (ip), vehicle: saline 102 % of control

CC(C)(C)OC(=O)NCCCCC(NC(=O)OCc1ccccc1)C(=O)O (configuration not stated)
inactive: dose: 25.0 mg/kg/injection, schedule: Q04DX002 (ip), vehicle: saline with Tween-80 90 % of control | dose: 50.0 mg/kg/injection, schedule: Q04DX002 (ip), vehicle: saline with Tween-80 97 % of control | [14] 89 % of control | [15] 101 % of control

Nc1csnn1
inactive: dose: 50.0 mg/kg/injection, schedule: Q01DX001 (ip), vehicle: carboxymethylcellulose (CMC) 98 % of control | [12] 96 % of control | [13] 98 % of control

O=C(Cc1ccc([N+](=O)[O-])cc1)c1ccccc1
inactive: dose: 100.0 mg/kg/injection, schedule: Q01DX001 (ip), vehicle: Klucel (hydroxypropylcellulose) (HPC) 95 % of control | [10] 102 % of control | dose: 100.0 mg/kg/injection, schedule: Q01DX009 (ip), vehicle: saline 108 % of control | dose: 100.0 mg/kg/injection, schedule: Q04DX003 (ip), vehicle: Klucel (hydroxypropylcellulose) (HPC) 97 % of control | dose: 200.0 mg/kg/injection, schedule: Q01DX001 (ip), vehicle: Klucel (hydroxypropylcellulose) (HPC) 88 % of control | [11] 103 % of control | dose: 200.0 mg/kg/injection, schedule: Q01DX009 (ip), vehicle: saline 102 % of control | dose: 200.0 mg/kg/injection, schedule: Q04DX003 (ip), vehicle: Klucel (hydroxypropylcellulose) (HPC) 97 % of control | dose: 400.0 mg/kg/injection, schedule: Q01DX001 (ip), vehicle: Klucel (hydroxypropylcellulose) (HPC) 90 % of control | dose: 400.0 mg/kg/injection, schedule: Q01DX009 (ip), vehicle: Klucel (hydroxypropylcellulose) (HPC) 94 % of control | dose: 400.0 mg/kg/injection, schedule: Q01DX009 (ip), vehicle: saline 97 % of control | dose: 400.0 mg/kg/injection, schedule: Q04DX003 (ip), vehicle: Klucel (hydroxypropylcellulose) (HPC) 101 % of control

CC1(C)CC(C)(c2ccccc2)c2ccccc21 (configuration not stated)
inactive: [9] 101 % of control | dose: 75.0 mg/kg/injection, schedule: Q04DX003 (ip), vehicle: Klucel (hydroxypropylcellulose) (HPC) 104 % of control | [10] 95 % of control | dose: 150.0 mg/kg/injection, schedule: Q04DX003 (ip), vehicle: Klucel (hydroxypropylcellulose) (HPC) 102 % of control | [11] 95 % of control | dose: 300.0 mg/kg/injection, schedule: Q04DX003 (ip), vehicle: Klucel (hydroxypropylcellulose) (HPC) 102 % of control
